The target in one experiment is human TLR9 (Homo sapiens (Human), UniProt Q9NR96). Nature of the experiment: TLR9 inhibition reporter assay (HEK-Blue cells, SEAP reporter, ODN2006 stimulation).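 Also: compounds tested over 0.05 nM to 50 µM, 22 h incubation, inhibition taken as SEAP signal drop from agonist plus DMSO wells toward a known inhibitor control.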 As to conditions: read-out: TLR9 IC50, HEK-Blue cells overexpressing human TLR9, ODN2006 5 nM.
For another experiment, the target named is human TLR8 (Homo sapiens (Human), UniProt Q9NR97). Nature of the experiment: TLR8 inhibition reporter assay (HEK-Blue cells, SEAP reporter, R848 stimulation).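 Also: compounds tested from 0.05 nM to 50 µM, 22 h at 37 °C, SEAP measured with HEK-Blue Detection, inhibition relative to agonist plus DMSO versus a known inhibitor.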 As to conditions: read-out: TLR8 IC50, HEK-Blue cells overexpressing human TLR8, R848 15.9 μM. In general terms: In a reporter assay the amount or activity of a reporter protein is the signal.
human TLR8, sequence (Q9NR97 27-1041): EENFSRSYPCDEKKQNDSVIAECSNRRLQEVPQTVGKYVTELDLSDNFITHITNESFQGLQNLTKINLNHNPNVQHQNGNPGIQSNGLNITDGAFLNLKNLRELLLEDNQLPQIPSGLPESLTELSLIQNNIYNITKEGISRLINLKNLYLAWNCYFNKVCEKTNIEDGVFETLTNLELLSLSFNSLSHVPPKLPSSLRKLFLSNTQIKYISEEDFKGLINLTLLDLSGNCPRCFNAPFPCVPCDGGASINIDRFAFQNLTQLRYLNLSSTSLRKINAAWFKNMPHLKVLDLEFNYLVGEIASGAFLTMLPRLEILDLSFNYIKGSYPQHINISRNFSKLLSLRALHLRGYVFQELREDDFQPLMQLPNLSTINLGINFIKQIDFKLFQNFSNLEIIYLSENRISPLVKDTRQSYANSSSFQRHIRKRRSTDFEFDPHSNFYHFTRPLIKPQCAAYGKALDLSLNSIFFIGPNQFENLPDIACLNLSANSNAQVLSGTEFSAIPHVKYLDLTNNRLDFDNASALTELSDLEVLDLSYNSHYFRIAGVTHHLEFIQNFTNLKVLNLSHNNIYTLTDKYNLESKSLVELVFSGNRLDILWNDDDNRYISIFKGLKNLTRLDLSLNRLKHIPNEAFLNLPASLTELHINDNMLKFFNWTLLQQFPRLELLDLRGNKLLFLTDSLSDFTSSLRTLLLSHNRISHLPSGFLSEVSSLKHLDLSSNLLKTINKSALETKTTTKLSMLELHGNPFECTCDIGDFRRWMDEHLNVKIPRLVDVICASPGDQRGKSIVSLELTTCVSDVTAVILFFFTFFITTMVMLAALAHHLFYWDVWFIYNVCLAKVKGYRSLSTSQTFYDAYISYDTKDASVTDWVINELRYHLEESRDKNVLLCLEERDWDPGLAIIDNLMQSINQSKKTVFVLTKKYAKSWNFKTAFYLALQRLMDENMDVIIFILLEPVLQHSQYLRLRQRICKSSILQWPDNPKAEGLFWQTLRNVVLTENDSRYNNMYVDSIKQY
The target in the next experiment is human TLR7 (Homo sapiens (Human), UniProt Q9NYK1). Nature of the experiment: TLR7 inhibition reporter assay (HEK-Blue cells, SEAP reporter, gardiquimod stimulation). The class given is cell-based. As to conditions: HEK-Blue cells overexpressing human TLR7, gardiquimod 7.5 μM.
human TLR7, sequence (Q9NYK1 27-1049): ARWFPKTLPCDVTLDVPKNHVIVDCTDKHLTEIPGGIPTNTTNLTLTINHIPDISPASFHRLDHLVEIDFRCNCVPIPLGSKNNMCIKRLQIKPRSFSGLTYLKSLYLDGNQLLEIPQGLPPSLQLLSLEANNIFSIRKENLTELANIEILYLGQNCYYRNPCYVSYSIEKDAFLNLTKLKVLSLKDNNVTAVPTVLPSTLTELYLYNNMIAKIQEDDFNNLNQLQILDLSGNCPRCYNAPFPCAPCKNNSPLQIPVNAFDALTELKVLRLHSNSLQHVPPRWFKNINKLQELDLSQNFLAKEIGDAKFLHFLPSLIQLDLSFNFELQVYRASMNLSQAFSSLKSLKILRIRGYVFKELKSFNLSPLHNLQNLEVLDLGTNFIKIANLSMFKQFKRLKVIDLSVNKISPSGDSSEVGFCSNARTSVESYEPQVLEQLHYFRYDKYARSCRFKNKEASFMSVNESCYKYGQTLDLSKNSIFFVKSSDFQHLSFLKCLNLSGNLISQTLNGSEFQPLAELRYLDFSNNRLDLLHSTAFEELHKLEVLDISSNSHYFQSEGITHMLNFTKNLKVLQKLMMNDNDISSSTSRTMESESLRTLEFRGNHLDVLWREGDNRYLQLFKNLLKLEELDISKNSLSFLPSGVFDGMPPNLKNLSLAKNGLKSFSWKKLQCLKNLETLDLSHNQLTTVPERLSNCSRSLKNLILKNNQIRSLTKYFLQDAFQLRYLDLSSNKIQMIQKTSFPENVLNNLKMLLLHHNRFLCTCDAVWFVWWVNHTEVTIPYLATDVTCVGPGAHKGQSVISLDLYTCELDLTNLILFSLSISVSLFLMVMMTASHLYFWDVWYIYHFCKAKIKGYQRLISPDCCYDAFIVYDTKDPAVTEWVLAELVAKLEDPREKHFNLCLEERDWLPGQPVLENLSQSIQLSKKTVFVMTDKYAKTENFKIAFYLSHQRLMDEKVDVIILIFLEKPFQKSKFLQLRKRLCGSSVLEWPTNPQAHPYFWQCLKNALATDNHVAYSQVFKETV

The source of these data is US10660877B2 (BRISTOL-MYERS SQUIBB COMPANY, priority 2016, dated 2020).

human TLR9, sequence (Q9NR96 26-1032): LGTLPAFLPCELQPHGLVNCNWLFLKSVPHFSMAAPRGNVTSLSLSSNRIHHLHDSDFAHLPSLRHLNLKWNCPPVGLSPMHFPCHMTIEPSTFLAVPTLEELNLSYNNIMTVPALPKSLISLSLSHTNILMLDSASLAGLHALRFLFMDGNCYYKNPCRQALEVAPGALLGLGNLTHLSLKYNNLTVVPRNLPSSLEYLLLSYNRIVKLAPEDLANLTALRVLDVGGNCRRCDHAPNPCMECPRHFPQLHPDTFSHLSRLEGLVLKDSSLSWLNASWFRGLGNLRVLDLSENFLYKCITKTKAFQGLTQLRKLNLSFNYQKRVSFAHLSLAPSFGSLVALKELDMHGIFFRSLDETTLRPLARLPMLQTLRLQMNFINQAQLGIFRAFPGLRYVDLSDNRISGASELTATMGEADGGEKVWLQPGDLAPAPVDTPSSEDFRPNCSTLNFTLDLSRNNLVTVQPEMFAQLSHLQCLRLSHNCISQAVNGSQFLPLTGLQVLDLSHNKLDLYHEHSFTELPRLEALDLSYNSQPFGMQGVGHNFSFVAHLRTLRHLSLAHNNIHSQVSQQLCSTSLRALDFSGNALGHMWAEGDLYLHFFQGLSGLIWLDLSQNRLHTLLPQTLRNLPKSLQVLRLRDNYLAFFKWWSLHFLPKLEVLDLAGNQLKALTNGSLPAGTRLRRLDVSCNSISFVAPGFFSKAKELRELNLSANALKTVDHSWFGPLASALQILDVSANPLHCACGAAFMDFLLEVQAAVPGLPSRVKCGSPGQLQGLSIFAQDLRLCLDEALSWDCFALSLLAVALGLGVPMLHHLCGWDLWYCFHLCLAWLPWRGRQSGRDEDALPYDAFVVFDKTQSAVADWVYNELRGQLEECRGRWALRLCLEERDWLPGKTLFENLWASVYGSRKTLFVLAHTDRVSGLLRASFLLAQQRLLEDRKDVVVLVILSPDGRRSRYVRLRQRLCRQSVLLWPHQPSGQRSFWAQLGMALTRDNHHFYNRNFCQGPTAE
Experimental for human TLR8: TLR7/8/9 Inhibition Reporter Assays
Briefly, cells are seeded into Greiner 384 well plates (15000 cells per well for TLR7, 20,000 for TLR8 and 25,000 for TLR9) and then treated with test compounds in DMSO to yield a final dose response concentration range of 0.05 nM-50 μM. […] After a 22 hour incubation at 37° C., 5% CO2, SEAP levels are determined with the addition of HEK-Blue™ Detection reagent (Invivogen), a cell culture medium that allows for detection of SEAP, according to manufacturer's specifications. The percent inhibition is determined as the % reduction in the HEK-Blue signal present in wells treated with agonist plus DMSO alone compared to wells treated with a known inhibitor.

A word on the IC50: it is the concentration at which inhibition is half-maximal. As to `Cc1cc(-c2[nH]c3ccc(C4CCN(C(=O)CN(C)CC(O)c5ccccc5)CC4)cc3c2C(C)C)cc(C)n1` (stereo not drawn) [Example 399, 1-(4-(2-(2,6-dimethylpyridin-4-yl)-3-isopropyl-1H-indol-5-yl)piperidin-1-yl)-2-((2-hydroxy-2-phenylethyl)(methyl)amino)ethan-1-one], the IC50 at human TLR9 was 688 nM; on human TLR8 it was 66.9 nM; against human TLR7, 6.1 nM.

As to `Cc1cc(-c2[nH]c3ccc(C4CCN(C(=O)CN5CCOC[C@H]5CO)CC4)cc3c2C(C)C)cc(C)n1` [Example 400, (R)-1-(4-(2-(2,6-dimethylpyridin-4-yl)-3-isopropyl-1H-indol-5-yl)piperidin-1-yl)-2-(3-(hydroxymethyl)morpholino)ethan-1-one], the results for the 50% inhibitory concentration (IC50) at human TLR9, on human TLR8 and against human TLR7 were 451 nM, 16.8 nM and 3.4 nM, respectively.

For `Cc1cc(-c2[nH]c3ccc(C4CCN(C(=O)CN(C)CC(C)(C)O)CC4)cc3c2C(C)C)cc(C)n1` [Example 401, 1-(4-(2-(2,6-dimethylpyridin-4-yl)-3-isopropyl-1H-indol-5-yl)piperidin-1-yl)-2-((2-hydroxy-2-methylpropyl)(methyl)amino) ethan-1-one], the half-maximal inhibitory concentration (IC50) on human TLR9 was 1060 nM; on human TLR8, 53 nM; at human TLR7, 9 nM.

Turning to `Cc1cc(-c2[nH]c3ccc(C4CCN(C(=O)CN(C)[C@@H]5CCOC5)CC4)cc3c2C(C)C)cc(C)n1` [Example 402, (R)-1-(4-(2-(2,6-dimethylpyridin-4-yl)-3-isopropyl-1H-indol-5-yl)piperidin-1-yl)-2-(methyl(tetrahydrofuran-3-yl)amino) ethan-1-one], the results for the IC50 on human TLR9, on human TLR8 and on human TLR7 were 1820 nM, 61.1 nM and 11.1 nM, respectively.

With `Cc1cc(-c2[nH]c3ccc(C4CCN(C(=O)CN5CC(F)(F)C[C@H]5CO)CC4)cc3c2C(C)C)cc(C)n1` [Example 403, (S)-2-(4,4-difluoro-2-(hydroxymethyl)pyrrolidin-1-yl)-1-(4-(2-(2,6-dimethylpyridin-4-yl)-3-isopropyl-1H-indol-5-yl)piperidin-1-yl)ethan-1-one], the figures for the half-maximal inhibitory concentration (IC50) on human TLR9, at human TLR8 and against human TLR7 were 17600 nM, 209 nM and 14.6 nM, respectively.

Take `Cc1cc(-c2[nH]c3ccc(C4CCN(C(=O)CN5CC(C(F)(F)F)C[C@@H]5CO)CC4)cc3c2C(C)C)cc(C)n1` (stereo partly drawn) [Example 404, 1-(4-(2-(2,6-dimethylpyridin-4-yl)-3-isopropyl-1H-indol-5-yl)piperidin-1-yl)-2-((2R)-2-(hydroxymethyl)-4-(trifluoromethyl)pyrrolidin-1-yl)ethan-1-one]: the results for the IC50 at human TLR9, on human TLR8 and against human TLR7 were 11300 nM, 437 nM and 64.5 nM, respectively.

Take `Cc1cc(-c2[nH]c3ccc(C4CCN(C(=O)CN5CCOC[C@@H]5CO)CC4)cc3c2C(C)C)cc(C)n1` [Example 405, (S)-1-(4-(2-(2,6-dimethylpyridin-4-yl)-3-isopropyl-1H-indol-5-yl)piperidin-1-yl)-2-(3-(hydroxymethyl)morpholino)ethan-1-one]: the IC50 on human TLR9 worked out at 527 nM; at human TLR8, 12.9 nM; against human TLR7 it was 2.1 nM.

Take `CCC(C)CN(CCO)CC(=O)N1CCC(c2ccc3[nH]c(-c4cc(C)nc(C)c4)c(C(C)C)c3c2)CC1` (stereo not drawn) [Example 406, 1-(4-(2-(2,6-dimethylpyridin-4-yl)-3-isopropyl-1H-indol-5-yl)piperidin-1-yl)-2-((2-hydroxyethyl)(2-methylbutyl)amino)ethan-1-one]: the concentration for half-maximal inhibition (IC50) is 1070 nM on human TLR9, 73.8 nM on human TLR8 and 7.8 nM against human TLR7.

With `Cc1cc(-c2[nH]c3ccc(C4CCN(C(=O)CN(CCO)Cc5ccc(F)cc5)CC4)cc3c2C(C)C)cc(C)n1` [Example 407, 1-(4-(2-(2,6-dimethylpyridin-4-yl)-3-isopropyl-1H-indol-5-yl)piperidin-1-yl)-2-((4-fluorobenzyl)(2-hydroxyethyl)amino)ethan-1-one], the IC50 at human TLR9 turned out to be 495 nM; at human TLR8, 71 nM; against human TLR7, 7 nM.
